According to PubChem BioAssay AID493130 (Broad Institute, 2011):
Results filed as inconclusive are left out. The source made the active and inactive calls.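 Rule for the calls: active = signal-lowering compounds whose fitted half-maximal concentration is at most ten times their highest tested dose; inconclusive = flat fit between -30 and -70%, or poor fit; inactive = flat within 30%, signal rising, or potency beyond limit.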

Molecular target: POS-1 (Caenorhabditis elegans) binding to mex-3 RNA
Test: inhibitors of POS-1/mex-3 RNA binding, dose response, counter-screen for MEX-5 RNA-binding inhibitor project, biochemical, fluorescence polarization, cherry-picked samples, set 2 (AID 493130);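 note: POS-1 as maltose binding protein fusion made in E. coli with FITC RNA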;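 for activity change, negative = inhibition: 0% = DMSO neutral wells and -100% = excess unlabeled mex3 competitor RNA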
Settings: POS-1/mex-3 RNA fluorescence polarization, 1 h; for activity change, negative = inhibition: at 10 µM (top of the series)

activity change, negative = inhibition | AC50 [µM] | SMILES
inactive | – | O=C1/C(=C\c2ccc(Br)cc2)SC(=S)N1NS(=O)(=O)c1ccccc1
inactive | – | CN(C)c1ccc(N=Cc2nc(-c3ccccc3)oc2OC(=O)c2cccc(Br)c2)cc1
inactive | – | O=C(O)CCCCCN1C(=O)C(O)=C(C(=O)/C=C/c2ccccc2)C1c1ccccc1[N+](=O)[O-] (stereo not drawn)
inactive | – | Nc1ccc(Cc2ccc(N)c(C(=O)O)c2)cc1C(=O)O
inactive | – | CCc1ccc(S(=O)(=O)/N=C2\C=C(Nc3ccc(C(=O)O)cc3)C(=O)c3ccccc32)cc1
inactive | – | COc1ccccc1NCc1cc(=O)oc2c(C)c(O)ccc12
inactive | – | CCc1ccc(/C=C2\Oc3cc(OS(C)(=O)=O)ccc3C2=O)cc1
inactive | – | COc1ccc(C(=O)N2C(=S)NC(=O)/C2=C\c2ccc(C)cc2)cc1
inactive | – | Cc1ccc(S(=O)(=O)c2cc3c(=O)n4ccccc4nc3n(C3CCCCC3)c2=N)cc1
inactive | – | O=C(O)CCN1C(=O)/C(=C\c2ccc(OCc3ccccc3)c(OCc3ccccc3)c2)SC1=S
inactive | – | O=C(O)CC1S/C(=N/N=C/c2ccc(-c3ccccc3[N+](=O)[O-])o2)NC1=O (stereo not drawn)
inactive | – | COc1ccc(N(C(=O)CCl)C(C)(C(=O)Nc2c(C)cccc2C)c2ccccn2)cc1 (stereo not drawn)
inactive | – | O=C(NC(=S)NNS(=O)(=O)c1ccccc1)c1ccc([N+](=O)[O-])cc1
inactive | – | CC(=O)Nc1ccc(S(=O)(=O)/N=C2/NC(=O)/C(=C\c3ccco3)S2)cc1
inactive | – | O=C(O)c1cccc(NC(=S)N/N=C/c2c[nH]c3ccccc23)c1

Second part, the compound before the results:

SMILES | activity change, negative = inhibition | AC50 [µM]
COc1cc(/C=C2/C(C)=C(C#N)c3nc(N)c(C#N)c(C)c32)ccc1OCC(=O)O | inactive | –
COc1ccc2c(c1)NC(c1ccc(N(C)C)cc1)c1cccn1-2 (stereo not drawn) | inactive | –
CCOC(=O)Cc1csc(NC(=O)c2sc3nc4ccc(CC)cc4cc3c2N)n1 | inactive | –
CCCC1C2CN(C(C)C)CC=C2C(C#N)=C(N)C1(C#N)C#N (stereo not drawn) | – | 1.81
CCOC(=O)c1cnc2c(N=Nc3ccccc3)c(N)nn2c1N | inactive | –
CCCCCC(=O)N(Cc1ccccc1)c1c(N)n(CCOC)c(=O)[nH]c1=O | inactive | –
CC1=Nc2ccc(C)cc2/C1=C/c1c(N)n2c(S(=O)(=O)C(C)C)nsc2nc1=O | inactive | –
C#CCOCCOCCOCCNc1nc(N2CCN(C(=O)[C@H](CCCCN)n3cc(C(N)CO)nn3)CC2)nc(N2CCN(C(=O)[C@H](CCC(=O)O)n3cc(C(N)CC(C)C)nn3)CC2)n1 (stereo partly drawn) | inactive | –
Cc1cc(/C=C2/C(=N)N3C(=NC2=O)SN=C3S(C)(=O)=O)c(C)n1-c1ccc(F)cc1 | inactive | –
Cc1occc1C(=O)N/N=C/C1=C(N2CCOCC2)C(=C\c2ccc(Cl)cc2Cl)/CC1 | – | 8.21
COCCNC(=S)NNC(=O)c1cccs1 | inactive | –
CCS(=O)(=O)C1=NN2C(=N)/C(=C\c3ccc(SCc4ccco4)o3)C(=O)N=C2S1 | inactive | –
CC(C)N1CCc2c(sc(NC(=O)c3ccc(S(=O)(=O)N4CCCCC4C)cc3)c2C(N)=O)C1 (stereo not drawn) | inactive | –
CN(C)c1ccc(C(c2nnnn2CCOC(=O)Nc2ccc(Cl)cc2)N2CCOCC2)cc1 (stereo not drawn) | inactive | –
CN1C(=O)N(C)C(c2cccc([N+](=O)[O-])c2)C2=C1CCCC2=O (stereo not drawn) | inactive | –
Cc1ccc2c(c1)c(C1=NC(=S)NC1=O)c(O)n2C | inactive | –
COc1cccc(OCC(=O)NNC(=O)c2cnccn2)c1 | inactive | –
O=C(NNC(=S)NC(=O)c1ccccc1[N+](=O)[O-])c1ccccc1[N+](=O)[O-] | inactive | –
